Assay results: patent publication US6291515A, “Use of efomycins” (Bayer Aktiengesellschaft, priority 1996, dated 2001)

Tests used:
Type in all cases: cell-based
[1] = system: adhesion of pig PMNL to hypoxia-stimulated pig aorta; experiment: Inhibition of PMNL adhesion to hypoxia-stimulated pig aortas, pig PMNL; details: for % adherent PMNL, Pig PMNL: hypoxia-stimulated pig aorta, proportion of adherent PMNL vs control (=100), 90-minute coincubation at 37° C., MPO readout
Protocol: (§1) Freshly isolated pig aortas were brought into the laboratory from the local slaughterhouse in oxygen-aerated, phosphate-buffered saline solution (PBS). Freshly obtained pig or human blood was taken for the preparation of polymorphonuclear neutrophilic granulocytes (PMNL). The aortas were stimulated by placing them for 30 minutes in PBS which was aerated with nitrogen (hypoxia stimulus). The aorta were then fixed between a Teflon block (below) and a specially made steel plate (above) with drilled wells (similar to a microtiter plate). PMNL and the potential adhesion inhibitors were added to the luminal side, i.e. to the stimulated endothelial cell layer, in cell media (M199, Gibco). After a 90-minute coincubation at 37° C. in an incubator, the wells were washed. The remaining adherent PMNL were lysed. The activity of the PMNL-specific myeloperoxidase (MPO) in the lysate was determined photometrically and compared to the untreated control (only solvent). […] The proportion of the adherent PMNL in comparison with the control is indicated.
(§2) Inhibition of the adhesion of pig PMNL or human PMNL to hypoxia-stimulated pig aorta by efomycins

[2] = system: adhesion of human PMNL to hypoxia-stimulated pig aorta; experiment: Inhibition of PMNL adhesion to hypoxia-stimulated pig aortas, human PMNL; details: proportion of adherent PMNL vs control (=100), 90-minute coincubation at 37° C., MPO readout
Protocol: as §1, §2

[3] = system: adhesion of PMNL to albumin-coated plastic surfaces; experiment: Adhesion of PMNL to albumin-coated plastic surfaces; details: test described in EP 0 461 499 A2 (Use Example 1)
Description: The adhesion test to albumin-coated plastic surfaces is described in detail, inter alia, in EP 0 461 499 A2 (Use Example 1).

[4] = system: cultured endothelial cells; experiment: MTT test for cytotoxicity on endothelial cells; details: at efficacious concentrations

Structure (SMILES)	activity in the test model described (PMNL adhesion to hypoxia-stimulated pig aorta), in words ([1]; PMNL species not given)	% adherent PMNL, Pig PMNL [1] [%]	% adherent PMNL, Human PMNL [2] [%]	inhibition of adhesion of PMNL to albumin-coated plastic surfaces [3]	cytotoxicity against endothelial cells in the MTT test [4]
CC[C@@H](/C=C/C(=O)[C@@H](C)[C@H](O)[C@H](C)[C@H]1OC(=O)/C=C/C=C/[C@H](C)[C@@H]([C@@H](C)[C@@H](O)[C@H](C)C(=O)/C=C/[C@H](CC)[C@@H](C)O)OC(=O)/C=C/C=C/[C@@H]1C)[C@@H](C)O [Ex. No. 1]	active	33 ± 23	52 ± 2	does not inhibit	no cytotoxicity
CC[C@@H](/C=C/C(=O)[C@@H](C)[C@H](OC(C)=O)[C@H](C)[C@H]1OC(=O)/C=C/C=C/[C@H](C)[C@@H]([C@@H](C)[C@@H](OC(C)=O)[C@H](C)C(=O)/C=C/[C@H](CC)[C@@H](C)OC(C)=O)OC(=O)/C=C/C=C/[C@@H]1C)[C@@H](C)OC(C)=O [Ex. No. 2]		85 ± 11	90 ± 5		
